From patent US20230174581A1, “PROCESSES AND AGENTS FOR GLAUCOMA” (AUFBAU MEDICAL INNOVATIONS LIMITED, priority 2020, published 2023) come the findings set out here.

Where a name gives a salt, the structure may show the parent alone. Where a SMILES comes first, the peptide text is derived from it. Bridges are numbered along the chain shown (N, C = ends). [ ]: non-standard residue; d: D form. The star is where a group is joined. Octanoyl(6-Me) = CCC(C)CCCCC(=O)*; Dab = NCC[CH](N)C(=O)O

Assay [1] in a line: Relative IOP versus placebo in bovine vitreous humor (BVH) glaucoma model, microfluidic chip device. How it is done:
Bovine vitreous after homogenization was used to model human disease because it mimicked elevated IOP in humans.
A solution of the agent compound was prepared by weighing out the compound in a microcentrifuge tube and dissolving the solid material in lx PBS buffer at pH 7.2. For a compound that was less soluble in water, a stock solution was prepared in ethanol or DMSO, and then diluted ten-fold to achieve the final concentration with a 10% ethanol or DMSO vehicle. Heat (37° C.) and vortex mixing were applied to the solution of the compound to facilitate dissolution.
To determine the effect of the compound on intraocular pressure (IOP), the compound was tested in bovine vitreous humor (BVH) glaucoma model in the microfluidic chip device.
A solution of 25% homogenized bovine vitreous humor (BVH) was prepared by diluting 100% homogenized BVH with PBS buffer. 50 uL BVH was aliquoted into 0.5 mL PCR tubes. 50 uL of the solution of the compound was added to the BVH, bringing the BVH total concentration to 12.5%. The sample was briefly vortexed and then incubated at 37° C. overnight. For a control experiment, 50 uL of either PBS buffer or PBS with 10% ethanol or DMSO were prepared and incubated with 25% BVH in the same conditions.
The test BVH solution was introduced into the reservoir of the device. A fluidic probe was attached to the inlet of the microfluidic chip and a flow rate of 2ul/min was established with PBS as the source fluid. Once fluid began exiting from the outlet of the chip and a steady flow of 2 ul/min was achieved, the flow rate and the pressure change within the microfluidic chip were recorded. Baseline flow rate and pressure readings were recorded for 5 minutes, after which 7 ul of the test BVH solution was injected into the chip through a sample injector. Recording of the flow rate and pressure change was continued for 50 additional minutes after the sample injection. Recording was stopped after 55 minutes. The relative change in chip pressure for the entire course of the experiment was plotted on a graph.

Assay [2] is described as follows: Dose-response of IOP reduction in bovine vitreous humor (BVH) glaucoma model, microfluidic chip device. The following applies: 12.5% BVH, incubated at 37° C. for 1 hour; 7 ul injected; read-out: EC50 for treatment of glaucoma in a bovine vitreous model (IOP reduction). As for the experimental part: Bovine vitreous after homogenization was used to model human disease because it mimicked elevated IOP in humans. […] Once it was added to BVH, the final water concentration was 0.5%. […] Once added to BVH, the final DMSO concentration was 0.5%. […] The pellet was resuspended with PBS and concentrated by 2.5X fold. For treatment of BVH with compound, 25 ul of enriched BVH was added to 25 ul of Compound and incubated for 1 hour in a thermocycler at 37° C., then 5 ul of 5 mM CFSE was added, and the sample incubated in a thermocycler at 37° C. for 30 minutes. EC50 was estimated by plotting the logarithmic functions of the micromolar concentration of the drug in the x axis against the percent of maximal response in the y axis. The maximal response was taken as the value of the response for the highest drug concentration. The response was calculated by taking the absolute difference between the control and test value for each concentration. The compound colistin sulfate was tested in bovine vitreous humor (BVH) glaucoma model in a microfluidic chip device. A solution of 25% homogenized BVH in PBS buffer was prepared and diluted with an equal amount of a solution of the compound, so that the total BVH concentration was 12.5%. The sample was vortexed and incubated at 37° C. for 1 hour. […] The test compound-BVH solution was introduced into the reservoir of the microfluidic chip device and flow rate and pressure change were recorded. Various concentrations of the compound were tested for effects on the treatment of bovine vitreous humor. 7 ul of each test solution was injected into the microfluidic chip through a sample injector. Recording of the flow rate and pressure change was continued for 50 additional minutes after the sample injection. The relative change in chip pressure for the entire course of the experiment was obtained. […] The EC50 value was taken as the point on the x-axis at which the logarithmic function of the micromolar concentration of the compound produced half-maximal response. The logarithmic function of the micromolar concentration of the drug was plotted on the x axis against the percent of maximal response on the y axis. Maximal response was obtained by taking the value of the response for the highest drug concentration. The response was calculated by taking the absolute difference between the control and test value for each concentration.

A short description of assay [3]: Relative IOP in microfluidic device, human glaucoma model (POAG aqueous humor). To be noted: pre-incubated at 37° C. for 24 hours, placebo buffered saline. As for the experimental part: The agent was tested by controlling flow and measuring relative IOP using in a device of this invention. The agent was compared against placebo (buffered saline) by preparing each in aqueous humor from a patient with primary open angle glaucoma and pre-incubating at 37° C. for 24 hours. The timepoint of injection into the device is denoted by an arrow and the letter “a.” Referring to FIG. 25, the IOP for placebo (dashed line) increased greatly after injection of the placebo sample. The IOP rose to a maximum pressure of about 40 mm Hg. To the contrary, the IOP after injection of the agent colistin sulfate in human aqueous humor (solid line) was markedly lower than for placebo, up to about 40% lower, and the difference was sustained.
Example 1. Isolation of extracellular matrix bodies in a microfluidic device. […] The microfluidic channel flow rate was held constant at […] per minute, and the baseline system pressure was measured using an external pressure sensor. The human aqueous humor sample was injected at timepoint denoted by an arrow and the letter “a.” The pressure steadily rises to a maximum of about 41 mm Hg at 27 minutes. […] The protein content in the aqueous humor was labeled with a fluorescent marker, carboxyfluorescein succinimidyl ester (CFSE, marked with black arrows in FIG. 2). The circles are pillars in the restriction channel.
Example 2. […]

Setting [4] is: pre-incubated at 37° C. for 24 hours, placebo buffered saline, concentration not given.

With `CCCCCCCCCCCCCCCC[n+]1ccccc1` [cetylpyridinium chloride, 1-hexadecylpyridin-1-ium], in assay [1] (37° C. 24 hours, cetylpyridinium chloride 43 mg/ml), the “IOP after injection of agent, lower than for placebo” value (“IOP … lower than for placebo” below) is listed as not above 100%.

Turning to `CC[C@@H](C(N)=O)N1CCCC1=O` [levetiracetam], the “IOP … lower than for placebo” value in assay [1] (setting [4]) is given as “up to 62%”. Moreover, the EC50 (in general, the concentration giving half of the maximal effect) in assay [2] is 213 nM.

Turning to `CC(C)(C)C(=O)OCOP(=O)(COCCn1cnc2c(N)ncnc21)OCOC(=O)C(C)(C)C` [adefovir dipivoxil], the “IOP … lower than for placebo” value in assay [1] (setting [4]) is recorded as “up to 73%”.

H-TPPT-NH2 [rapastinel TFA]: in assay [1] (setting [4]), the “IOP … lower than for placebo” value is “up to 82%”. In assay [2], the EC50 was 18 nM.

Take `COC(=O)N[C@H](C(=O)N1CCC[C@H]1C(=O)Nc1ccc([C@@H]2CC[C@@H](c3ccc(NC(=O)[C@@H]4CCCN4C(=O)[C@@H](NC(=O)OC)C(C)C)cc3)N2c2ccc(C(C)(C)C)cc2)cc1)C(C)C` [ombitasvir]: the “IOP after injection of compound compared with placebo” value in assay [1] (37° C. 24 hours, concentration not given) is listed as “significantly higher than for placebo”.

In the case of `CC(C)(C)NC(=O)N[C@H](C(=O)N1C[C@H]2[C@@H]([C@H]1C(=O)NC(CC1CCC1)C(=O)C(N)=O)C2(C)C)C(C)(C)C` (some centres unmarked) [boceprevir], in assay [1] (setting [4]), the “IOP … lower than for placebo” value is on record as “up to 67%”. For the same compound, the EC50 in assay [2] was determined as 11300 nM.

For colistin sulfate, the “IOP … lower than for placebo” value in assay [1] (setting [4]) is recorded as “up to 97%”; in assay [3] it was “up to 40%”. Besides, the EC50 in assay [2] was determined as 0.36 nM.

On to `CCC(C)CCCCC(=O)NC(CCN)C(=O)NC(C(=O)NC(CCN)C(=O)NC1CCNC(=O)C(C(C)O)NC(=O)C(CCN)NC(=O)C(CCN)NC(=O)C(CC(C)C)NC(=O)C(Cc2ccccc2)NC(=O)C(CCN)NC1=O)C(C)O` (centres unmarked) [polymyxin B sulfate] ({Octanoyl(6-Me)}-[Dab]T[Dab][Dab][Dab]FL[Dab][Dab]T; lactam 4-C; configuration not given here), for which the “IOP … lower than for placebo” value in assay [1] (37° C. 24 hours, Polymyxin B sulfate 10 mg/ml) amounted to 78%. For the same compound, in assay [2], the EC50 is 4.3 nM.

On to `CCCCCCCCCCCCOS(=O)(=O)[O-].[Na+]` [sodium dodecyl sulfate], for which the “IOP after injection of compound compared with placebo” value in assay [1] (37° C. 24 hours, sodium dodecyl sulfate 24 mg/ml) is on record as “significantly higher than for placebo”.

Consider `NC[C@@H]1OC(O[C@H]2[C@@H](O)[C@H](O[C@@H]3[C@@H](O)[C@H](N)C[C@H](N)[C@H]3OC3O[C@H](CN)[C@@H](O)[C@H](O)[C@H]3N)O[C@@H]2CO)[C@H](N)[C@@H](O)[C@@H]1O` (some centres unmarked) [neomycin], for which the “IOP … lower than for placebo” value in assay [1] (37° C. 24 hours, neomycin sulfate 35 mg/ml) is 72%.

For the compound `CN(C)CCCN1c2ccccc2Sc2ccc(C(F)(F)F)cc21` [triflupromazine], in assay [1] (setting [4]), the “IOP … lower than for placebo” value is listed as “up to 40%”.

For the compound heparin sodium, in assay [1] (37° C. 24 hours, heparin sodium 10 mg/ml), the “IOP … lower than for placebo” value was found to be 32%.

Regarding `Nc1ncnc2c1ncn2CCOCP(=O)(O)O` [adefovir, ((2-(6-amino-9H-purin-9-yl)ethoxy)methyl)phosphonic acid], the half-maximal effective concentration (EC50) in assay [2] was determined as 169 nM.

Turning to `CC(C)N(CCNC(=O)CN1CCCC1=O)C(C)C` [pramiracetam, N-[2-[di(propan-2-yl)amino]ethyl]-2-(2-oxopyrrolidin-1-yl)acetamide], the “IOP … lower than for placebo” value in assay [1] (setting [4]) is “up to 44%”.
